Structures can show the parent of a compound that is named as a salt.
Key:
Format in all cases: biochemical
[1] = molecular target: T1, GST-tagged recombinant full-length human Pim-2 (Homo sapiens, UniProt Q9P1W9); assay: PIM-2 Assay (as Example A); conditions: averaged IC50; 4 μM ATP, 1.0 μM PIM2tide, 1.5 nM Pim-2
T1 construct: GST-tagged recombinant full-length human Pim-2; GST
In short: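 Radiometric filter-binding assay: GST-tagged full-length human Pim-2 (1.5 nM) phosphorylates 1.0 μM PIM2tide with 4 μM [γ-33P]ATP for 60 min at 22 °C in pH 7.4 MOPS buffer, 2% DMSO. 10-point 3-fold dilutions from 10 μM top dose; IC50 from 4-parameter fit of percent of control.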

PIM-1 = PIM-1 (Homo sapiens, UniProt P11309); assay: Enzyme PIM-1 Assay ([33P]ATP incorporation into PIM2tide, filter plate); conditions: averaged IC50; 35 μM ATP, 7.5 μM PIM2tide, 0.25 nM PIM-1, 60 min at 22° C.
Sequence of PIM-1 (P11309 whole entry, species assumed): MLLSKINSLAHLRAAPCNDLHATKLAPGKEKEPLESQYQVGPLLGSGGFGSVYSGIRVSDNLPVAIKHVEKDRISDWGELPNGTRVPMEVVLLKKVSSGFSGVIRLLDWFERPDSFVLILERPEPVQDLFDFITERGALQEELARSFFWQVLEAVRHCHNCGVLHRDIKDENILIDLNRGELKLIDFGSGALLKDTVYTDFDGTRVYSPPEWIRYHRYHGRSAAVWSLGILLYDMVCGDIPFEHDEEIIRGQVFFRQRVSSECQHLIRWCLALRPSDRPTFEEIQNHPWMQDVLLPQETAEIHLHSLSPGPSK
In short: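 Radiometric assay: 0.25 nM PIM-1 phosphorylates 7.5 μM PIM2tide with 35 μM [γ-33P]ATP in 20 mM MOPS pH 7.4, 10 mM MgCl2, 1 mM DTT, 0.005% Tween-20, 60 min at 22 °C. Product captured on P81 filters, scintillation counted; 10-point 3-fold curve from 10 μM top, 2% DMSO, IC50 by 4-parameter logistic fit of POC.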

recombinant rat PIM-3 = recombinant rat PIM-3 (Rattus norvegicus, UniProt O70444); assay: PIM-3 Assay (as Example A); conditions: averaged IC50; 30 μM ATP, 3.75 μM PIM2tide, 0.5 nM PIM-3
In short: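 Recombinant rat PIM-3 (0.5 nM) with 3.75 μM PIM2tide and 30 μM [γ-33P]ATP in MOPS pH 7.4 buffer, 60 min at 22 °C; labelled peptide captured on phosphocellulose filters and counted by scintillation. 10-point curve (top dose 10 μM, 2% DMSO); IC50 from 4-parameter fit of percent of control.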

T1 sequence (Q9P1W9 whole entry): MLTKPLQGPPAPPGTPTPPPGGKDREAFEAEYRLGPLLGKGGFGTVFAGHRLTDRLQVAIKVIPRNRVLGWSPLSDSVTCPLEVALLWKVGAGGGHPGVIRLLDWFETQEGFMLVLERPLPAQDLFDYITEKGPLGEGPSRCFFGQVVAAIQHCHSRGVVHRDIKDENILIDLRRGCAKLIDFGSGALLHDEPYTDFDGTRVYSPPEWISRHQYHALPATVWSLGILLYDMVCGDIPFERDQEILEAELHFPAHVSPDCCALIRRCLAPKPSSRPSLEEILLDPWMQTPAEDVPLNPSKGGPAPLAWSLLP

Row | IC50 [1] | IC50 (PIM-1) | IC50 (recombinant rat PIM-3) | Structure (SMILES)
1 | > 100 nM | 2.63 nM | 7.3 nM | N[C@H]1CCN([C@H](c2ccc3nnc(-c4ccc5cc(F)c(C6(CO)CC6)cc5n4)n3c2)C(F)(F)F)C1 [Example 164, (1-(2-(6-((R)-1-((S)-3-aminopyrrolidin-1-yl)-2,2,2-trifluoroethyl)-[1,2,4]triazolo[4,3-a]pyridin-3-yl)-6-fluoroquinolin-7-yl)cyclopropyl)methanol dihydrochloride]
2 | > 1000 nM | 4.2 nM | 21 nM | CCC1(N)CCN([C@H](c2ccc3nnc(-c4ccc5cccc(OC)c5n4)n3c2)C(F)(F)F)C1 (single isomer, unassigned; diastereomer 1) [Example 242, dihydrochloride]
3 | 96 nM | 0.41 nM | 2.7 nM | N[C@@H]1CN([C@H](c2ccc3nnc(-c4ccc5cc(F)cc(C6CC6)c5n4)n3c2)C(F)(F)F)C[C@H]1O [Example 181, (3R,4R)-4-amino-1-((R)-1-(3-(8-cyclopropyl-6-fluoroquinolin-2-yl)-[1,2,4]triazolo[4,3-a]pyridin-6-yl)-2,2,2-trifluoroethyl)pyrrolidin-3-ol dihydrochloride]
4 | 92 nM | 0.17 nM | 2.7 nM | N[C@H]1CCN([C@H](c2ccc3nnc(-c4ccc5cc(F)c(C6CC6)cc5n4)n3c2)C(F)(F)F)C1 [Example 176, (S)-1-((R)-1-(3-(7-cyclopropyl-6-fluoroquinolin-2-yl)-[1,2,4]triazolo[4,3-a]pyridin-6-yl)-2,2,2-trifluoroethyl)pyrrolidin-3-amine dihydrochloride]
5 | 23 nM | 0.08 nM | 0.4 nM | CC(C)Oc1cccc2ccc(-c3nnc4ccc([C@@H](N5CC[C@H](N)C5)C(F)(F)F)cn34)nc12 [Example 31, (S)-1-((R)-2,2,2-trifluoro-1-(3-(8-isopropoxyquinolin-2-yl)-[1,2,4]triazolo[4,3-a]pyridin-6-yl)ethyl)pyrrolidin-3-amine dihydrochloride]
6 | 14 nM | 0.2 nM | 0.2 nM | CC(C)(O)COc1cc2nc(-c3nnc4ccc([C@H](N5CC[C@](C)(N)C5)C(F)(F)F)cn34)ccc2cc1F [Example 301, 1-(2-(6-((S)-1-((S)-3-amino-3-methylpyrrolidin-1-yl)-2,2,2-trifluoroethyl)-[1,2,4]triazolo[4,3-a]pyridin-3-yl)-6-fluoroquinolin-7-yloxy)-2-methylpropan-2-ol dihydrochloride]
7 | 75 nM | 0.2 nM | 1.1 nM | N[C@H]1CCN([C@H](c2ccc3nnc(-c4ccc5cccc(OCC6CC6)c5n4)n3c2)C(F)(F)F)C1 (single isomer, unassigned) [Example 11, dihydrochloride]
8 | 25.7 nM | 0.19 nM | 0.4 nM | COC[C@@H](C)Oc1ccc2ccc(-c3nnc4ccc([C@H](N5CC[C@](C)(N)C5)C(F)(F)F)cn34)nc2c1 [Example 315, (S)-3-methyl-1-((S)-2,2,2-trifluoro-1-(3-(7-(((R)-1-methoxypropan-2-yl)oxy)quinolin-2-yl)-[1,2,4]triazolo[4,3-a]pyridin-6-yl)ethyl)pyrrolidin-3-amine]
9 | 176 nM | 0.55 nM | 0.6 nM | Cc1c(C(=O)NC(C)C)ccc2ccc(-c3nnc4ccc([C@@H](N5CC[C@H](N)C5)C(F)(F)F)cn34)nc12 [Example 209, 2-(6-((R)-1-((S)-3-aminopyrrolidin-1-yl)-2,2,2-trifluoroethyl)-[1,2,4]triazolo[4,3-a]pyridin-3-yl)-N-isopropyl-8-methylquinoline-7-carboxamide]
10 | > 100 nM | 0.17 nM | 32 nM | CCc1cccc2ccc(-c3nnc4ccc([C@@H](N5C[C@@H](O)[C@H](O)C5)C(F)(F)F)cn34)nc12 [Example 73, (3R,4R)-1-((R)-1-(3-(8-ethylquinolin-2-yl)-[1,2,4]triazolo[4,3-a]pyridin-6-yl)-2,2,2-trifluoroethyl)pyrrolidine-3,4-diol]
11 | > 100 nM | 0.19 nM | 1.6 nM | COCCc1cc2nc(-c3nnc4ccc([C@@H](N5CC[C@H](N)C5)C(F)(F)F)cn34)ccc2cc1F [Example 153, (S)-1-((R)-2,2,2-trifluoro-1-(3-(6-fluoro-7-(2-methoxyethyl)quinolin-2-yl)-[1,2,4]triazolo[4,3-a]pyridin-6-yl)ethyl)pyrrolidin-3-amine dihydrochloride]
12 | > 100 nM | 0.23 nM | 1.9 nM | N[C@H]1CCN([C@H](c2ccc3nnc(-c4ccc5cccc(C(F)(F)F)c5n4)n3c2)C(F)(F)F)C1 [Example 161, (S)-1-((R)-2,2,2-trifluoro-1-(3-(8-(trifluoromethyl)quinolin-2-yl)-[1,2,4]triazolo[4,3-a]pyridin-6-yl)ethyl)pyrrolidin-3-amine dihydrochloride]
